# Laboratory results reported in US20110257210A1, “BENZIMIDAZOLE DERIVATIVES AND THEIR USE FOR MODULATING THE GABAA RECEPTOR COMPLEX” (NEUROSEARCH A/S, priority 2008, published 2011).
# Target: benzodiazepine binding site on GABAA receptors (rat cerebral cortex membranes)
# Assay: In vitro inhibition of 3H-flunitrazepam (3H-FNM) binding
# Conditions: inhibition of specific binding of 3H-FNM (1 nM), cerebral cortex membranes from male Wistar rats, 40 min at 2° C.
# Method: In Vitro Inhibition of ^3H-flunitrazepam (^3H-FNM) Binding
# […] the benzodiazepine modulatory unit can selectively be labelled with ^3H-flunitrazepam.
# Preparations are performed at 0-4° C. unless otherwise indicated. Cerebral cortex from male Wistar rats (150-200 g) is homogenised for 5-10 sec in 20 ml Tris-HCl (30 mM, pH 7.4) using an Ultra-Turrax homogeniser. The suspension is centrifuged at 27,000×g for 15 min and the pellet is washed three times with buffer (centrifuged at 27,000×g for 10 min). The washed pellet is homogenized in 20 ml of buffer and incubated on a water bath (37° C.) for 30 min to remove endogenous GABA and then centrifuged for 10 min at 27,000×g. The pellet is then homogenized in buffer and centrifuged for 10 min at 27,000×g. The final pellet is resuspended in 30 ml buffer and the preparation is frozen and stored at −20° C.
# The membrane preparation is thawed and centrifuged at 2° C. for 10 min at 27,000×g. The pellet is washed twice with 20 ml 50 mM Tris-citrate, pH 7.1 using an Ultra-Turrax homogeniser and centrifuged for 10 min at 27,000×g. The final pellet is resuspended in 50 mM Tris-citrate, pH 7.1 (500 ml buffer per g of original tissue), and then used for binding assays. Aliquots of 0.5 ml tissue are added to 25 μl of test solution and 25 μl of ^3H-FNM (1 nM, final concentration), mixed and incubated for 40 min at 2° C. Non-specific binding is determined using Clonazepam (1 μM, final concentration). After incubation the samples are added 5 ml of ice-cold buffer and poured directly onto Whatman GF/C glass fibre filters under suction and immediately washed with 5 ml ice-cold buffer. The amount of radioactivity on the filters is determined by conventional liquid scintillation counting. Specific binding is total binding minus non-specific binding.
# 25-75% inhibition of specific binding must be obtained, before calculation of an IC50.
# The test value will be given as IC50 (the concentration (μM) of the test substance which inhibits the specific binding of ^3H-FNM by 50%).
# Co is specific binding in control assays, and
# CX is the specific binding in the test assay.
# (The calculations assume normal mass-action kinetics).
row,SMILES,IC50 [nM]
1,"CC(C)(O)c1ccc2c(c1)ncn2-c1ccc(F)c(-c2cncc(C#N)c2)c1 [Compound 7g, 5-{2-Fluoro-5-[5-(1-hydroxy-1-methyl-ethyl)-benzoimidazol-1-yl-]-phenyl}-nicotinonitrile]",99
2,"CC(C)(O)c1ccc2c(c1)ncn2-c1ccc(F)c(-c2cccnc2Cl)c1 [Compound 7b, 2-{1-[3-(2-Chloro-pyridin-3-yl)-4-fluoro-phenyl]-1H-benzoimidazol-5-yl}-propan-2-ol]",1.9
3,"COc1ncc(-c2cc(-n3cnc4cc(C(C)(C)O)ccc43)ccc2F)c(OC)n1 [Compound 7h, 2-{1-[3-(2,4-Dimethoxy-pyrimidin-5-yl)-4-fluoro-phenyl]-1H-benzoimidazol-5-yl}-propan-2-ol]",0.77
4,"CC(C)(O)c1ccc2c(c1)ncn2-c1ccc(F)c(-c2ccncc2Cl)c1 [Compound 7c, 2-{1-[3-(3-Chloro-pyridin-4-yl)-4-fluoro-phenyl]-1H-benzoimidazol-5-yl}-propan-2-ol]",0.64
5,"CC(C)(O)c1ccc2c(c1)ncn2-c1ccc(F)c(-c2ccncc2C#N)c1 [Compound 7i, 4-{2-Fluoro-5-[5-(1-hydroxy-1-methyl-ethyl)-benzoimidazol-1-yl]-phenyl}-nicotinonitrile]",1.1
6,"COc1ncccc1-c1cc(-n2cnc3cc(C(C)(C)O)ccc32)ccc1F [Compound 7d, 2-{1-[4-Fluoro-3-(2-methoxy-pyridin-3-yl)-phenyl]-1H-benzoimidazol-5-yl}-propan-2-ol]",0.29
7,"CC(C)(O)c1ccc2c(c1)ncn2-c1ccc(F)c(-c2cccnc2F)c1 [Compound 7a, 2-{1-[4-Fluoro-3-(2-fluoro-pyridin-3-yl)-phenyl]-1H-benzoimidazol-5-yl}-propan-2-ol]",1.6
8,"CC(C)(O)c1ccc2c(c1)ncn2-c1ccc(F)c(-c2ccncc2F)c1 [Compound 7e, 2-{1-[4-Fluoro-3-(3-fluoro-pyridin-4-yl)-phenyl]-1H-benzoimidazol-5-yl}-propan-2-ol]",1.1
9,"CC(C)(O)c1ccc2c(c1)ncn2-c1ccc(F)c(-c2ccnc(Cl)c2F)c1 [Compound 7f, 2-{1-[3-(2-Chloro-3-fluoro-pyridin-4-yl)-4-fluoro-phenyl]-1H-benzoimidazol-5-yl}-propan-2-ol]",2.5
